# In patent publication US12590067B2, “Herbicidal cyclohexanedione derivatives” (SYNGENTA CROP PROTECTION AG, priority 2019, dated 2026):
# Assays:
# Assay in all cases: Glasshouse herbicidal test, pre- and post-emergence, percentage damage to the plant
# Type in all cases: in vivo
# [1] = system: Alopecurus myosuroides (ALOMY); conditions: 250 g/h, evaluated after 13 days; for ALOMY POST percentage damage caused to the plant (five-point scale): post-emergence; for ALOMY PRE percentage damage caused to the plant (five-point scale): pre-emergence
# Experimental: (§1) Seeds of a variety of test species are sown in standard soil in pots (Lolium perenne (LOLPE), Setaria faberi (SETFA), Alopecurus myosuroides (ALOMY), Echinochloa crus-galli (ECHCG), Avena fatua (AVEFA)). After cultivation for one day (pre-emergence) or after 8 days cultivation (post-emergence) under controlled conditions in a glasshouse (at 24/16° C., day/night; 14 hours light; 65% humidity), the plants are sprayed with an aqueous spray solution derived from the formulation of the technical active ingredient in acetone/water (50:50) solution containing 0.5% Tween 20 (polyoxyethelyene sorbitan monolaurate, CAS RN 9005-64-5). Compounds are applied at 250 g/h. The test plants are then grown in a glasshouse under controlled conditions in a glasshouse (at 24/16° C., day/night; 14 hours light; 65% humidity) and watered twice daily. After 13 days for pre and post-emergence, the test is evaluated for the percentage damage caused to the plant. The biological activities are shown in the following table on a five-point scale (5=80-100%; 4=60-79%; 3=40-59%; 2=20-39%; 1=0-19%).
# [2] = system: Lolium perenne (LOLPE); conditions: 250 g/h, evaluated after 13 days; for LOLPE POST percentage damage caused to the plant (five-point scale): post-emergence; for LOLPE PRE percentage damage caused to the plant (five-point scale): pre-emergence
# Experimental: as §1
# [3] = system: Echinochloa crus-galli (ECHCG); conditions: 250 g/h, evaluated after 13 days; for ECHCG POST percentage damage caused to the plant (five-point scale): post-emergence; for ECHCG PRE percentage damage caused to the plant (five-point scale): pre-emergence
# Experimental: as §1
# [4] = system: Setaria faberi (SETFA); conditions: 250 g/h, evaluated after 13 days; for SETFA POST percentage damage caused to the plant (five-point scale): post-emergence; for SETFA PRE percentage damage caused to the plant (five-point scale): pre-emergence
# Experimental: as §1
# [5] = system: Avena fatua (AVEFA); conditions: 250 g/h, evaluated after 13 days; for AVEFA POST percentage damage caused to the plant (five-point scale): post-emergence; for AVEFA PRE percentage damage caused to the plant (five-point scale): pre-emergence
# Experimental: as §1
SMILES,ALOMY POST percentage damage caused to the plant (five-point scale) [1],ALOMY PRE percentage damage caused to the plant (five-point scale) [1],LOLPE POST percentage damage caused to the plant (five-point scale) [2],LOLPE PRE percentage damage caused to the plant (five-point scale) [2],ECHCG POST percentage damage caused to the plant (five-point scale) [3],ECHCG PRE percentage damage caused to the plant (five-point scale) [3],SETFA POST percentage damage caused to the plant (five-point scale) [4],SETFA PRE percentage damage caused to the plant (five-point scale) [4],AVEFA POST percentage damage caused to the plant (five-point scale) [5],AVEFA PRE percentage damage caused to the plant (five-point scale) [5]
CC#Cc1cc(Cl)c(C2C(=O)CC3(CCN(C(=O)C(F)F)CC3)CC2=O)c(Cl)c1 [Compound A16],5 (5=80-100%),5 (5=80-100%),5 (5=80-100%),5 (5=80-100%),5 (5=80-100%),5 (5=80-100%),5 (5=80-100%),5 (5=80-100%),5 (5=80-100%),5 (5=80-100%)
CC#Cc1cc(Cl)c(C2C(=O)CC3(CCN(C(=O)NC(=O)c4ccccn4)CC3)CC2=O)c(OC)c1 [Compound A11],5 (5=80-100%),5 (5=80-100%),5 (5=80-100%),5 (5=80-100%),5 (5=80-100%),5 (5=80-100%),5 (5=80-100%),5 (5=80-100%),5 (5=80-100%),3 (3=40-59%)
CC#Cc1cc(Cl)c(C2C(=O)CC3(CCN(C(=O)NC(C)(C)C)CC3)CC2=O)c(OC)c1 [Compound A6],5 (5=80-100%),5 (5=80-100%),5 (5=80-100%),5 (5=80-100%),5 (5=80-100%),5 (5=80-100%),5 (5=80-100%),5 (5=80-100%),5 (5=80-100%),5 (5=80-100%)
CC#Cc1cc(C)c(C2C(=O)CC3(CCN(C(C)=O)CC3)CC2=O)c(Cl)c1 [Compound A55],5 (5=80-100%),5 (5=80-100%),5 (5=80-100%),5 (5=80-100%),5 (5=80-100%),5 (5=80-100%),5 (5=80-100%),5 (5=80-100%),5 (5=80-100%),5 (5=80-100%)
CCc1cc(-c2ccc(C#N)cn2)cc(Cl)c1C1C(=O)CC2(CCN(C(=O)C3CC3)CC2)CC1=O [Compound A53],5 (5=80-100%),5 (5=80-100%),5 (5=80-100%),5 (5=80-100%),5 (5=80-100%),5 (5=80-100%),5 (5=80-100%),5 (5=80-100%),5 (5=80-100%),5 (5=80-100%)
